Measured values: patent US20260150871A1, “TASTE MODIFYING COMPOSITIONS AND USES THEREOF” (Firmenich Incorporated, priority 2022, published 2026)

How the values were obtained:
Assay type in all cases: in vivo
Panelists [1] = test: Flavor modification of chicken broth: panel sensory rating; conditions: 0.7 wt % sodium chloride, 0.04 wt % MSG, mean, scale of 0 to 10; for Lasting Umami Intensity: Sample C 3.1; for Umami Intensity: Sample C 4.3; for White Meat Intensity: Sample C 4.8; for Saltiness Intensity: Sample C 4.9; for Chicken Flavor Intensity: Sample C 5.3
Description: (§1) A series of test samples and a comparative sample were prepared. The comparative sample (C) was a standard reconstituted chicken broth solution containing 0.7 wt % sodium chloride and 0.04 wt % MSG. Two test samples were prepared. Each test sample contained chicken broth, sodium chloride, and MSG in the same amounts as the comparative sample plus 3 ppm of TM1 (sample S1) or 5 ppm of TM1 (sample S2). Panelists were asked to rate the intensity of certain sensory features of the samples on a scale of 0 to 10. Higher numbers indicate greater intensity.

Panelists [2] = test: Umami enhancement of MSG: panel sensory rating of aqueous sodium chloride/MSG samples; conditions: mean, scale of 0 to 10; for Lasting Umami Intensity: Sample C 3.1; for Saltiness Intensity: Sample C 3.6; for Umami Intensity: Sample C 4.0
Description: as §1, with “contained 0.3” for “was a standard reconstituted chicken broth solution containing 0.7”, “0.05” for “0.04”, “contained” for “contained chicken broth,”, “chloride” for “chloride,”, “2” for “3”

Panelists [3] = test: MSG reduction with soy-based vegan chicken nugget: panel sensory rating; conditions: Sample S1: 5 ppm TM1 in soy-based vegan chicken nugget, 1.68 wt % flavoring (chicken), 0.4 wt % MSG, 0.03 wt % purinic ribonucleotide, mean, scale of 0 to 10
Description: (§2) A test sample and a comparative sample were prepared. The comparative (sample C) was a standard soy-based vegan chicken nugget having 1.68 wt % flavoring (chicken), 0.4 wt % MSG, and 0.03 wt % purinic ribonucleotide. The test sample contained flavoring, MSG, and purinic ribonucleotide in the same amounts as the comparative sample plus 5 ppm of TM1 (sample S1). Panelists were asked to rate the intensity of certain sensory features of the samples on a scale of 0 to 10. Higher numbers indicate greater intensity.

Panelists [4] = test: MSG reduction with potato crisp: panel sensory rating; conditions: Sample S1: 5 ppm TM1 on potato crisp, 2 wt % flavoring (sour cream and onion), 0.03 wt % MSG, 0.008 wt % purinic ribonucleotide, mean, scale of 0 to 10
Description: as §2, with “potato crisp” for “soy-based vegan chicken nugget”, “2” for “1.68”, “(sour cream and onion), 0.03” for “(chicken), 0.4”, “0.008” for “0.03”, “ribonucleotide. This reflects a 75% reduction of the standard amount of MSG used in such products (0.12 wt %).” for “ribonucleotide.”

[5] = Sample S1: 3 ppm TM1 in chicken broth, * significant vs C
[6] = Sample S2: 5 ppm TM1 in chicken broth, * significant vs C
[7] = Sample S2: 5 ppm TM1 in chicken broth
[8] = Sample S1: 2 ppm TM1 + 0.3 wt % sodium chloride + 0.05 wt % MSG
[9] = Sample S2: 5 ppm TM1 + 0.3 wt % sodium chloride + 0.05 wt % MSG, * significant vs C
[10] = Sample C 2.1, * significant vs C

How did the “Lasting Umami Intensity” value (Panelists [1]; [5]) turn out when C/C(=C\CO)C(=O)NCCCCNC(=O)/C=C/c1ccccc1 [TM1, (E)-N-(4-cinnamamidobutyl)-4-hydroxy-2-methylbut-2-enamide] was run?
The value was 4.2*.

What about the “Umami Intensity” value (Panelists [1]; [5]) of the same compound?
The value was 5.8*.

And the “White Meat Intensity” value (Panelists [1]; [5])?
The value was 5.8*.

And the “Saltiness Intensity” value (Panelists [1]; Sample S1: 3 ppm TM1 in chicken broth)?
Its value is 5.2.

What about the “Chicken Flavor Intensity” value (Panelists [1]; [5]) of the same compound?
The value was 6.0*.

What about the “Lasting Umami Intensity” value (Panelists [1]; [6]) of the same compound?
The value was 5.4*.

What about the “Umami Intensity” value (Panelists [1]; [6]) of the same compound?
The value was 6.2*.

What about the “White Meat Intensity” value (Panelists [1]; [7]) of the same compound?
The value was 4.8.

And the “Saltiness Intensity” value (Panelists [1]; [7])?
The value was 4.8.

And the “Chicken Flavor Intensity” value (Panelists [1]; [7])?
The value was 5.8.

And the “Lasting Umami Intensity” value (Panelists [2]; Sample S1: 2 ppm TM1 + 0.3 wt % sodium chloride + 0.05 wt % MSG, * significant vs C)?
Its value is 4.2*.

What about the “Saltiness Intensity” value (Panelists [2]; [8]) of the same compound?
The value was 3.8.

What about the “Umami Intensity” value (Panelists [2]; [8]) of the same compound?
The value was 4.8.

What about the “Lasting Umami Intensity” value (Panelists [2]; [9]) of the same compound?
Its value is 5.4*.

What about the “Saltiness Intensity” value (Panelists [2]; Sample S2: 5 ppm TM1 + 0.3 wt % sodium chloride + 0.05 wt % MSG) of the same compound?
The value was 3.8.

What about the “Umami Intensity” value (Panelists [2]; [9]) of the same compound?
The value was 6.0*.

What about the “Saltiness Intensity” value (Panelists [3]; Sample C 4.6) of the same compound?
The value was 4.4.

What about the “Umami Intensity” value (Panelists [3]; Sample C 5.1, * significant vs C) of the same compound?
The value was 5.8*.

And the “Lasting Umami Intensity” value (Panelists [4]; [10])?
The value was 2.8*.

What about the “Sour Intensity” value (Panelists [4]; [10]) of the same compound?
Its value is 2.9*.

What about the “Saltiness Intensity” value (Panelists [4]; Sample C 2.9) of the same compound?
Its value is 3.1.

And the “Umami Intensity” value (Panelists [4]; Sample C 3.0, * significant vs C)?
The value was 3.6*.
